Here are results for eight molecules from paper PMC11204923, “Marine Cytotoxin Santacruzamate A Derivatives as Potent HDAC1-3 Inhibitors and Their Synergistic Anti-Leukemia Effects with Venetoclax” (Marine Drugs, 2024).

Structures are written as SMILES. Some results are limits rather than exact numbers.

As a reminder, the IC50 is the concentration that gives 50% inhibition. Broadly, the inhibition is the share of the control response that was lost under treatment.

The subject of one test is Kasumi-1 cells. In words: Cell viability assay (resazurin), Kasumi-1. In kind it is cell-based. The following applies: Homo sapiens, Kasumi 1, 72 h; read-out: IC50 anti-proliferative activity Kasumi-1. As to the method:
(§1) The AML cell lines MV4-11, THP-1, KASUMI-1 and HL-60 were purchased from Procell Life Science & Technology Co., Ltd. (Wuhan, China). THP-1 and KASUMI-1 were cultured in RPMI-1640 complete medium containing 10% fetal bovine serum and 1% penicillin and streptomycin. MV4-11 was cultured in IMDM complete medium containing 10% fetal bovine serum and 1% penicillin and streptomycin. HL-60 was cultured in IMDM complete medium containing 20% fetal bovine serum and 1% penicillin and streptomycin. All cell lines were cultured in an incubator with humidity set at 95%, temperature at 37 °C and 5% CO2.
(§2) MV4-11, THP-1, KASUMI-1 and HL-60 cells were plated in 96-well transparent plates (10,000 to 15,000 cells/100 μL) and after incubation overnight, cells were treated with gradient-diluted inhibitors with several concentrations. After the cells were incubated with inhibitors for 72 h, 1 mg/mL of Resazurin (Sigma-Aldrich, Saint Louis, MO, USA) was added (working concentration was 0.1 mg/mL). After incubation at 37 °C for about 3 h, the fluorescence intensity of […] was measured at 560 nm/590 nm (excitation/emission) with a Spectra Max i3 Microplate Reader, and the cell viability was determined. The IC50 curve was drawn using GraphPad Prism 9.5 software.
Background: Resazurin is reduced to fluorescent resorufin, in cell work by metabolically active cells.

Test [1] has as its system MV4-11 cells. In words: Cell viability assay (resazurin), MV4-11. In kind it is cell-based. The following applies: Homo sapiens, MV4-11, 72 h; read-out: IC50 anti-proliferative activity MV4-11. As to the method: as §1, §2
A further test relates to THP-1 cells. In words: Cell viability assay (resazurin), THP-1. The class given is cell-based. The following applies: Homo sapiens, THP-1, 72 h; read-out: IC50 anti-proliferative activity THP-1. Here is the method:
as §1, §2

The target in the next test is T1, HDAC3 (Homo sapiens, UniProt O15379).
T1 construct: purchased BPS Bioscience
Description: In vitro HDAC inhibition fluorescence assay, HDAC3. In kind it is biochemical. The following applies: for inhibition at 0.01 µM: 10 nM; for inhibition at 0.01 µM / inhibition at 0.1 µM: read-out: Inhibition Rate of HDAC3 (%); for inhibition at 0.1 µM: 100 nM. As to the method: (§3) All of the HDAC enzymes were purchased from BPS Bioscience. In vitro HDAC inhibition assays were conducted as previously described. In brief, 20 μL of recombinant HDAC enzyme solution (HDAC1-9, 11) was mixed with various concentrations of the tested compound (20 μL). […] After incubation at 37 °C for 2 h, the catalysis was stopped by the addition of 10 μL of developer containing 30 mg/mL trypsin and 6 μM trichostatin A (TSA). Then, 30 min later, the fluorescence intensity was measured using a microplate reader at excitation and emission wavelengths of 360 and 460 nm, respectively. The inhibition ratios were calculated from the fluorescence intensity readings of tested wells relative to those of control wells, and the IC50 curves and values were determined by GraphPad Prism 6.0, using the “log(inhibitor) vs. normalized response-variable slope” function.

The next test deals with HL-60 cells. Description: Cell viability assay (resazurin), HL-60. The class given is cell-based. The following applies: Homo sapiens, HL-60, 72 h; read-out: IC50 anti-proliferative activity HL-60. Here is the method: as §1, §2
For the next test, the target named is T2, HDAC1 (Homo sapiens, UniProt Q13547).
T2 construct: purchased BPS Bioscience
Description: In vitro HDAC inhibition fluorescence assay, HDAC1. In kind it is biochemical. The following applies: for inhibition at 0.01 µM: 10 nM; for inhibition at 0.01 µM / inhibition at 0.1 µM: read-out: Inhibition Rate of HDAC1 (%); for inhibition at 0.1 µM: 100 nM. As to the method: as §3

For a further test, the target named is T3, HDAC2 (Homo sapiens, UniProt Q92769).
T3 construct: purchased BPS Bioscience
Description: In vitro HDAC inhibition fluorescence assay, HDAC2. The class given is biochemical. As to the method: as §3

The test system of test [2] is MV4-11, THP-1, HL60 and Kasumi-1 cells. In words: Cell viability assay, four AML cell lines together. The class given is cell-based. The following applies: synthesized SCA. Here is the method: as §1, §2
The subject of test [3] is MV4-11 cells. Description: Western blot analysis. In kind it is cell-based. The following applies: Venetoclax monotherapy, 24 h. Here is the method: MV4-11 cells were inoculated into 12-well plates at a density of 800,000 cells/mL. After incubation overnight, each well was treated with different concentrations of 25c and Venetoclax alone or in combination. After treatment for 24 h, the cells were collected and washed with pre-cooled PBS. A protease inhibitor (cocktail) and RIPA buffer were added for cell lysis. The decomposed solution was centrifuged at 12,000 rpm for 15 min at 4 °C, and the extracted protein was located in the supernatant. The proteins in each sample were denatured by heating at 100 °C in loading buffer (5×) for 10 min. The same amount of proteins in each sample was separated by SDS-PAGE and then electrotransferred to a PVDF membrane (Merck Millipore, Billerica, MA, USA) and enclosed in 5% skim milk powder for 1 h. The primary antibody diluted with an immune response booster solution was incubated in a shaking bed at 4 °C overnight, and the horseradish (HRP)-conjugated second antibody diluted with 5% skim milk powder was incubated at room temperature for 1 h on the second day. After the PVDF membrane was washed with TBST, the target protein bands could be detected with chemiluminescent reagents (Millipore, Billerica, MA, USA) and visualized in the Tanon 5200 + fluorescence imager.
The primary antibodies Caspase 3 (including Cleaved Caspase-3) (sc-56053), Mcl-1 (94296S), Bcl-xL (ab98143), γ-H2AX (9718S), AcHH3 (Lys27) (8173S), AcHH4 (sc-377520), HH3 (ab1791), Ac-tubulin (sc-23950), HDAC6 (sc-28386), α-tubulin (sc-23948), GAPDH (sc-59540) and β-actin (8H10D10) were purchased from Abcam, Cell Signaling Technology and Santa Cruz Biotechnology.

Test [4] relates to MV4-11 cells. Description: Microdilution checkerboard assay, 25c combined with Venetoclax. The following applies: Homo sapiens, 72 h, read-out: Inhibition Rate (%). In kind it is cell-based. Here is the method: The inhibition effect of 25c combined with Venetoclax on the proliferation of MV4-11 cells was determined by microdilution checkerboard assay. CompuSyn software was used to calculate the combined action index of the two compounds, and the cell inhibition rates of the two compounds acting alone and the combined action were input to calculate the combination index (CI) to evaluate the synergistic effect of the drugs. A CI value less than 1 indicates a synergistic effect, a CI value equal to 1 indicates an additive effect and a CI value greater than 1 indicates an antagonistic effect.
Background: Broth dilution looks for growth in wells or tubes with falling amounts of substance.

T3 sequence (Q92769 whole entry): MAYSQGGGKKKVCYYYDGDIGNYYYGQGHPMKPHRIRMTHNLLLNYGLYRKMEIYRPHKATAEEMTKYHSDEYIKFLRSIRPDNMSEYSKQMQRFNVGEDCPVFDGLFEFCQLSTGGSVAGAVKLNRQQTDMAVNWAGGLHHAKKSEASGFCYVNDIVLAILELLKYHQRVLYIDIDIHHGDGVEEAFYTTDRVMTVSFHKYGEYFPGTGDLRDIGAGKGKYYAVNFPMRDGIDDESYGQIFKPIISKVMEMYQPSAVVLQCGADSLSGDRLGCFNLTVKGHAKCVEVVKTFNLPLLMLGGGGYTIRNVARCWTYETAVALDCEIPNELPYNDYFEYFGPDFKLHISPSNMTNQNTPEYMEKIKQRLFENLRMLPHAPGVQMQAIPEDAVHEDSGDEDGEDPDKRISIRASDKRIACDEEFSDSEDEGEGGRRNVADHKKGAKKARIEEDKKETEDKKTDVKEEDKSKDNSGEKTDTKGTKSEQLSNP
T1 sequence (O15379 whole entry): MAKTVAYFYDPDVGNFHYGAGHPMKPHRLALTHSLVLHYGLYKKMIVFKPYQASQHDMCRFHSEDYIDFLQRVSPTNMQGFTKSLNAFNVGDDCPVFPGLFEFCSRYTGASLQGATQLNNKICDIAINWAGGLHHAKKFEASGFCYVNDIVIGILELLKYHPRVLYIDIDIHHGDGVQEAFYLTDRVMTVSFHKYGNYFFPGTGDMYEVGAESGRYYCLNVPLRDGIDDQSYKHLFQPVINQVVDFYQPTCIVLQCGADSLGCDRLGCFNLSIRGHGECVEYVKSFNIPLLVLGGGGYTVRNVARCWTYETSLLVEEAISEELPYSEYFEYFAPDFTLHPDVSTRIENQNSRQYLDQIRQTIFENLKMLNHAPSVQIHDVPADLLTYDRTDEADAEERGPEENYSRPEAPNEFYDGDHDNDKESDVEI
T1 sequence (Q9Y618 395-489 partner limits assumed): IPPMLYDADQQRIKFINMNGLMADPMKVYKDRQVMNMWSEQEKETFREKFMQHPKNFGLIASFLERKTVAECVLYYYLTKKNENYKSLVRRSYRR
T2 sequence (Q13547 whole entry): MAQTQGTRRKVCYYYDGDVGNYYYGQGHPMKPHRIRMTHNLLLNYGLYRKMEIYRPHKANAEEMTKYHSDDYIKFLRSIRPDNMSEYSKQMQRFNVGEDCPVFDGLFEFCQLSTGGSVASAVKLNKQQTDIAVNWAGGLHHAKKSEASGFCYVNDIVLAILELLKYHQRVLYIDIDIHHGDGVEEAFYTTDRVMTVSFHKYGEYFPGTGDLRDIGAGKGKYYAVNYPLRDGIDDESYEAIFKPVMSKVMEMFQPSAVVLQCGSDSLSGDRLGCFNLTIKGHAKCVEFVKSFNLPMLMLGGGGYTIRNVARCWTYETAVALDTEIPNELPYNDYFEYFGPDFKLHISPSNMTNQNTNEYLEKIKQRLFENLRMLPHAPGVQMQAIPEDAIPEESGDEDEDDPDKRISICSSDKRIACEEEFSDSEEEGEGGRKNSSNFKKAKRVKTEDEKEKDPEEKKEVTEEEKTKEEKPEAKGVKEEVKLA

Regarding `CCCNNC(=O)C=Cc1ccc(CNCc2ccccc2)cc1` [Compound 25b, 3-(4-((Benzylamino)methyl)phenyl)-N′-propylacrylohydrazide], the IC50 in the test with Kasumi-1 cells came to 0.448 ± 0.122 µM; in the test on MV4-11 cells [1], 0.362 ± 0.0768 µM; with THP-1 cells, 0.516 ± 0.145 µM; at HDAC3, 0.0027 ± 0.0006 µM; with HL-60 cells, 0.736 ± 0.0248 µM; against HDAC1 it was 0.027 ± 0.002 µM. At HDAC2, the IC50 is 0.111 ± 0.0169 µM. For the same molecule, the inhibition at 0.01 µM is 94.8 ± 0.1% on HDAC3 and 21.8 ± 1.6% on HDAC1. The inhibition at 0.1 µM at HDAC3 was 97.9 ± 0.2%; at HDAC1, 77 ± 0.3%.

For the molecule `CCCNNC(=O)C=Cc1ccc(CNCc2ccccn2)cc1` [Compound 25d, N′-Propyl-3-(4-(((pyridin-2-ylmethyl)amino)methyl)phenyl)acrylohydrazide], at HDAC3, half-maximal inhibition (IC50) was put at 0.013 ± 0.0064 µM, the inhibition at 0.01 µM came out at 62.5 ± 0.4% and the inhibition at 0.1 µM was found to be 86.9 ± 0.1%. Moreover, at HDAC1, the 50% inhibitory concentration (IC50) turned out to be 0.101 ± 0.027 µM, the inhibition at 0.01 µM is 9.3 ± 2.3% and the inhibition at 0.1 µM stood at 61.7 ± 1.1%. Further, the IC50 on HDAC2 turned out to be 0.314 ± 0.0367 µM.

As for `CCCNNC(=O)C=Cc1ccc(CNC2Cc3ccccc3C2)cc1` [Compound 25e, 3-(4-(((2,3-Dihydro-1H-inden-2-yl)amino)methyl)phenyl)-N′-propylacrylohydrazide], the IC50 was found to be 0.381 ± 0.147 µM in the test with Kasumi-1 cells; 0.353 ± 0.119 µM in the test with MV4-11 cells [1]; 0.451 ± 0.0738 µM in the test with THP-1 cells; 0.0031 ± 0.0015 µM against HDAC3; 0.502 ± 0.189 µM in the test on HL-60 cells; 0.0365 ± 0.005 µM against HDAC1. This molecule also had an IC50 on HDAC2 of 0.161 ± 0.029 µM. In addition, the inhibition at 0.01 µM on HDAC3 came out at 94.8 ± 0.5%; at HDAC1, 10.9 ± 1.2%. Moreover, the inhibition at 0.1 µM turned out to be 95.6 ± 0.2% at HDAC3 and 78.7 ± 0.7% at HDAC1.

As to `CCCNNC(=O)C=Cc1ccc(CNCc2cccc3ccccc23)cc1` [Compound 25g, 3-(4-(((Naphthalen-1-ylmethyl)amino)methyl)phenyl)-N′-propylacrylohydrazide], the IC50 in the test with Kasumi-1 cells is 1.01 ± 0.643 µM; in the test with MV4-11 cells [1], 0.582 ± 0.24 µM; in the test on THP-1 cells, 1.02 ± 0.498 µM; with HL-60 cells, 0.65 ± 0.247 µM; against HDAC1, 0.016 ± 0.001 µM; against HDAC2, 0.0463 ± 0.0041 µM. Also, the values for the inhibition at 0.01 µM on HDAC3 and at HDAC1 were 45.9% and 33.9%, respectively. Besides, the figures for the inhibition at 0.1 µM at HDAC3 and on HDAC1 were 71.1 ± 1.6% and 76.5 ± 5%, respectively.

Turning to `CCCNNC(=O)C=Cc1ccc(CN2C(=O)c3ccccc3C2=O)cc1` [Compound 30, 3-(4-((1,3-Dioxoisoindolin-2-yl)methyl)phenyl)-N′-propylacrylohydrazide], on HDAC3, the midpoint of inhibition, the IC50, lay at 0.0278 ± 0.0018 µM; the inhibition at 0.01 µM was 53.9 ± 0.4%; the inhibition at 0.1 µM was 85.1 ± 0.1%. For the same molecule, on HDAC1, it took 0.136 ± 0.0206 µM to reach half-maximal inhibition (IC50), the inhibition at 0.01 µM stood at 5.1 ± 1.3% and the inhibition at 0.1 µM was found to be 28.4 ± 1.1%. On HDAC2, this molecule returned an IC50 of 0.6519 ± 0.0034 µM.

As for `Nc1ccccc1NC(=O)c1ccc(CNC(=O)OCc2cccnc2)cc1` [Entinostat, reference compound], the 50% inhibitory concentration (IC50) is 0.48 ± 0.161 µM in the test with Kasumi-1 cells, 0.651 ± 0.0374 µM in the test on MV4-11 cells [1], 1.52 ± 0.218 µM in the test on THP-1 cells and 1.1 ± 0.0515 µM in the test on HL-60 cells. For the same molecule, on HDAC1, the inhibition at 0.01 µM stood at 3.8 ± 1.1%. In addition, the inhibition at 0.1 µM on HDAC1 was 37.6 ± 2.6%.

Regarding `CCOC(=O)NCCCC(=O)NCCc1ccccc1` [SCA, Santacruzamate A], the IC50 in the test on Kasumi-1 cells, in the test on MV4-11 cells [1], in the test on THP-1 cells and in the test on HL-60 cells was more than 10 µM in each case. In [2], the “anti-proliferative inhibitory activity in four AML cell lines” value is “no inhibitory activity was detected”. The “enzyme inhibitory activity, HDAC3” value on HDAC3 (screening at 100 nM and 10 nM) is given as “no activity”. Besides, the “enzyme inhibitory activity, HDAC1” value on HDAC1 (screening at 100 nM and 10 nM) is “no activity”.

Consider `CC1(C)CCC(CN2CCN(c3ccc(C(=O)NS(=O)(=O)c4ccc(NCC5CCOCC5)c([N+](=O)[O-])c4)c(Oc4cnc5[nH]ccc5c4)c3)CC2)=C(c2ccc(Cl)cc2)C1` [Venetoclax], for which the “level of cleaved-caspase3” value with MV4-11 cells [3] is on record as “slightly higher”. Moreover, the inhibition at 0.04 µM in the test on MV4-11 cells [4] (Venetoclax 0.04 μM alone) is 36.5%. The inhibition at 0.08 µM in the test on MV4-11 cells [4] (Venetoclax 0.08 μM alone) worked out at 62.3%. Also, the inhibition at 0.15 µM in the test with MV4-11 cells [4] (Venetoclax 0.15 μM alone) is 78.5%.
